According to US8901337B2, “Metal complexes having dual histone deacetylase inhibitory and DNA-binding activity” (Royal College of Surgeons in Ireland, priority 2009, dated 2014):

Assays:
HDAC1 = target: T1, HDAC1 (Homo sapiens, UniProt Q13547); test: Cayman HDAC1 Inhibitor Screening Assay Kit (fluorescence); format: biochemical
T1 construct: purchased Cayman Chemicals, Ann Arbor, USA
Method: The assay provides a fast two-step fluorescence-based method for measuring HDAC activity. Briefly, in the first step an acetylated lysine residue was incubated with HDAC1 and potential inhibitors. Deacetylation sensitises the substrate so that treatment with the HDAC developer in the second step releases a fluorescent product. The fluorescent reaction product was analysed using a plate reader with an excitation wavelengths of 350 nm and emission wavelengths of 460 nm.

[1] = test system: closed circular supercoiled pUC19 plasmid DNA; test: DNA unwinding, agarose gel mobility shift assay; format: binding; settings: 37° C., 48 h, range of concentrations
Method: Platinum compounds, such as cisplatin, that unwind the DNA duplex reduces the number of supercoils in closed circular DNA so that their number decreases. This decrease upon binding of unwinding agents causes a decrease in the rate of migration of DNA through agarose gel. Unwinding of closed circular supercoiled pUC19 plasmid DNA incubated with cis-[Pt^II(NH3)2(malSAHA−2H)] was assayed by an agarose gel mobility shift assay. Samples of plasmid DNA were incubated with platinum complexes at 37° C. in the dark for 48 h. All samples were subjected to electrophoresis on 1% native agarose gel running at 25° C. with TAE buffer and the voltage set at 25 V. The gels were then stained with EtBr, followed by photography with transilluminator.^16

A2780 cisR cells [2] = test: Morphological analysis (methylene blue/eosin and DAPI staining), A2780 cisR; format: cell-based, human; settings: IC50 and IC75, 72 hr
Method: Preparations of A2780 P and A2780-cisR cells were exposed to test agents for 72 hr and stained with methylene blue and eosin^19. Drug-treated cells were grown in petri dishes, washed once with PBS, once with PBS:methanol (1:1, v/v), and then fixed in 100% (v/v) methanol for 10 min. Following fixation, cell monolayers were rinsed with anhydrous methanol and stained with methylene blue and eosin for 2 min. Monolayers were then agitated for a further 2 min, destained by rinsing under a gentle stream of water and then finally rinsed with distilled water. Phase contrast microscopy was carried out using a Ceti-phase contrast microscope.
Drug-treated cells were also stained using a DNA-binding agent commonly used to stain nuclei and visualise nuclear morphology and DNA condensation, namely 4,6-diamidino-2-phenylindole (DAPI). Briefly, a monolayer of drug-treated cells was washed in PBS and fixed with 4% (w/v) paraformaldehyde for 30 min at room temperature. These cells were then permeabilized with 0.2% (v/v) Triton X in PBS and incubated with 1 μg/ml of DAPI for 30 min. Cells were again washed three times with PBS and viewed using a fluorescent microscope with 340/380 nm excitation filter at 250× magnification. Apoptotic cells were confirmed by identification of intensely stained, fragmented nuclei and condensed chromatin.

A2780 P cells = test: Inhibition of DNA synthesis, BrdU incorporation assay, A2780 P; format: cell-based, human; settings: 72 hr, FIG. 18
Method: (§1) DNA synthesis was determined using 5-bromo-2-deoxyuridine (BrdU) colourimetric incorporation assay.^18 A2780 P and A2780 cisR cells were seeded into 96 well plates and allowed to adhere overnight. All test agents were added and incubated for 72 hr prior to the addition of BrdU (10 μM per well). Plates were then incubated at 37° C. for 4 h and incorporation was quantified by ELISA (Calbiochem).

A2780 cisR cells [3] = test: Inhibition of DNA synthesis, BrdU incorporation assay, A2780 cisR; format: cell-based, human; settings: 72 hr, FIG. 19
Method: as §1

[4] = test system: caspase-3 activation in A2780 P cells; test: Caspase-3 colourimetric assay, A2780 P; format: cell-based, human; settings: 72 hr, IC50 and IC75, FIG. 20
Method: (§2) Both floating and attached cells were collected by centrifugation. Cells, at a density of 1.5×10^6 cells/ml were washed with PBS and then re-suspended in chilled cell lysis buffer (supplied in the Caspase-3 colourimetric assay kit, Calbiochem, UK). Cells were incubated on ice for 10 min and then centrifuged for 1 min at 10,000 g. The cytosolic fraction (supernatant) was collected into a fresh tube and 50 μl (2 mg/ml) of each protein sample was transferred to a 96 well plate and diluted with lysis buffer. A 50 μl aliquot of X2 reaction buffer, containing 10 mM DTT was added, followed by 5 μl of 4 mM DEVD-pNA substrate to give a final concentration of 200 μM. The plate was then incubated at 37° C. for 1-2 h. OD was determined at 400 nm using an Anthos HT-II microtitreplate reader. The fold increase in caspase-3 and -9 activities was determined by comparing results to that obtained with un-induced control.

[5] = test system: caspase-3 activation in A2780 cisR cells; test: Caspase-3 colourimetric assay, A2780 cisR; format: cell-based, human; settings: 72 hr, IC50 and IC75, FIG. 21
Method: as §2

[6] = test system: caspase-9 activation in A2780 P cells; test: Caspase-9 assay, A2780 P; format: cell-based, human; settings: 72 hr, IC50 and IC75, FIG. 22
Method: as §2

[7] = test system: caspase-9 activation in A2780 cisR cells; test: Caspase-9 assay, A2780 cisR; format: cell-based, human; settings: 72 hr, IC50 and IC75, FIG. 23
Method: as §2

T1 sequence (Q13547 whole entry): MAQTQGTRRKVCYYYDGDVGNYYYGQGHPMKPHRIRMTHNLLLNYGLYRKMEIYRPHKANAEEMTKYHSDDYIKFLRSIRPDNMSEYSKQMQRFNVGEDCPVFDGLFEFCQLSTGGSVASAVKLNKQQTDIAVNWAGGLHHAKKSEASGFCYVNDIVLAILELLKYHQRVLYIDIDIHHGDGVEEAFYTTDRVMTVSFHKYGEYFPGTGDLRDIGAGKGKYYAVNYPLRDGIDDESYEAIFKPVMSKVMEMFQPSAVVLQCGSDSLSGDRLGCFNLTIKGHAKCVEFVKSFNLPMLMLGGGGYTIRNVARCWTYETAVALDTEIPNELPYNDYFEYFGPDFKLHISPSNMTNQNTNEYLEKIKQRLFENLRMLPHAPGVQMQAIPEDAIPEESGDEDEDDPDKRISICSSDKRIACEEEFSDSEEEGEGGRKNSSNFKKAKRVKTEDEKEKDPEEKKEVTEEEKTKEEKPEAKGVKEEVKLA

SMILES | inhibition of HDAC1 (in words) (HDAC1) | IC50 (HDAC1; read-out: IC50 against HDAC I at 200 μM, at 200 μM) | unwinding of negatively supercoiled pUC19 plasmid DNA (DNA binding) [1] | cellular morphology and integrity of DNA (A2780 cisR cells [2]) | effect on DNA synthesis, BrdU incorporation (A2780 P cells) | effect on DNA synthesis, BrdU incorporation (A2780 cisR cells [3]) | caspase-3 activity [4] | caspase-3 activity [5] | caspase-9 activity [6] | caspase-9 activity [7]
[NH2][Pt]1([NH2])[O]C(=O)C(Cc2ccc(NC(=O)CCCCCCC(=O)NO)cc2)C(=O)[O]1 [cis-[Pt(NH3)2(malSAHA−2H)], cis-[Pt(NH3)2(malSAHA−2H)].3H2O] | inhibit HDAC1 | 1140 nM | can induce unwinding in negatively supercoiled pUC19 plasmid DNA |  |  |  |  |  |  | 
N.N.[Cl][Pt][Cl] [cisplatin, cis-[Pt^II(NH3)2Cl2], reference compound] |  |  |  | considerable thinning of the monolayer, attenuation of cells and the nuclei to be intensively stained and fragmented |  |  |  |  |  | 
[NH2][Pt]1([NH2])[O]C(=O)C(Cc2ccc(NS(=O)(=O)c3ccc(/C=C/C(=O)NO)cc3)cc2)C(=O)[O]1 [cis-[Pt(NH3)2(malBel−2H)], cis-[Pt(NH3)2(malBel−2H)].1.5H2O] |  |  |  | considerable thinning of the monolayer, attenuation of cells and the nuclei to be intensively stained and fragmented | dose-dependant decrease in DNA synthesis | dose-dependant decrease in DNA synthesis | an increase in both Caspase-3 and -9 activities | an increase in both Caspase-3 and -9 activities | an increase in both Caspase-3 and -9 activities | an increase in both Caspase-3 and -9 activities
